Data taken from US20160250213A1, “FORMULATIONS OF AZAINDOLE COMPOUNDS” (priority 2013, published 2016).
Where two headings read alike, the source gives them in different places.

Columns and labels:
A/Hong Kong/8/68 (H3N2) = experiment: microbe, parasite or virus in culture; assay type: cell-based; details: Influenza A virus, MDCK, read-out: Cell Protection Assay EC50 ± SD
[1] = tested on: A/Equine/2/Miami/63 (H3N8); experiment: microbe, parasite or virus in culture; assay type: cell-based; details: Influenza A virus, H3N8, MDCK, read-out: Cell Protection Assay EC50 ± SD
[2] = tested on: A/Virginia/ATCC3/2009 (H1N1); experiment: microbe, parasite or virus in culture; assay type: cell-based; details: Influenza A virus, MDCK, read-out: Cell Protection Assay EC50 ± SD
[3] = tested on: influenza A/Wisconsin/67/2005 (H3N2) challenge strain virus; assay type: in vivo, humans (healthy volunteers); details: for Composite Clinical Symptom, AUC, median / Influenza like Symptom, AUC, median: Day 1 through Day 7
[4] = tested on: A/South Dakota/6/2007 (H1N1); experiment: microbe, parasite or virus in culture; assay type: cell-based; details: Influenza A virus, MDCK, read-out: Cell Protection Assay EC50 ± SD
A/Swine/1976/31 (H1N1) = experiment: microbe, parasite or virus in culture; assay type: cell-based; details: Influenza A virus, H1N1, MDCK, in Sus scrofa, read-out: Cell Protection Assay EC50 ± SD
A/Florida/3/2006 (H1N1) = experiment: microbe, parasite or virus in culture; assay type: cell-based; details: Influenza A virus, MDCK, read-out: Cell Protection Assay EC50 ± SD
A/Missouri/3/2006 (H1N1) = experiment: microbe, parasite or virus in culture; assay type: cell-based; details: Influenza A virus, MDCK, read-out: Cell Protection Assay EC50 ± SD
[5] = 900 mg Day 1, 600 mg Days 2-5, N = 14
[6] = 1200 mg Day 1, 600 mg Days 2-5, N = 14
[7] = pooled Compound (1) dose groups, N = 52

Structure (SMILES): O=C(O)[C@H]1C2CCC(CC2)C1Nc1nc(-c2c[nH]c3ncc(F)cc23)ncc1F (some centres unmarked) [Compound (1)]
- EC50 (A/Hong Kong/8/68 (H3N2)): 0.6 ± 0.11 nM
- EC50 [1]: 0.5 ± 0.065 nM
- EC50 [2]: 1.9 ± 3.2 nM
- Composite Clinical Symptom, Duration, median ([3]; 100 mg QD 5 days, N = 12): 3.21 days
- Composite Clinical Symptom, Peak, mean ([3]; 100 mg QD 5 days, N = 12): 3.17 Grade
- Influenza like Symptom, Duration, median ([3]; 100 mg QD 5 days, N = 12): 3.21 days
- Influenza like Symptom, Peak, mean ([3]; 100 mg QD 5 days, N = 12): 2.75 Grade
- Composite Clinical Symptom, AUC, median ([3]; 100 mg QD 5 days, N = 12): 1.85 Grade*Day
- Influenza like Symptom, AUC, median ([3]; 100 mg QD 5 days, N = 12): 1.85 Grade*Day
- Composite Clinical Symptom, Duration, median ([3]; 400 mg QD 5 days, N = 12): 3.34 days
- Composite Clinical Symptom, Peak, mean ([3]; 400 mg QD 5 days, N = 12): 2.83 Grade
- Influenza like Symptom, Duration, median ([3]; 400 mg QD 5 days, N = 12): 3.34 days
- Influenza like Symptom, Peak, mean ([3]; 400 mg QD 5 days, N = 12): 2.42 Grade
- Composite Clinical Symptom, AUC, median ([3]; 400 mg QD 5 days, N = 12): 4.70 Grade*Day
- Influenza like Symptom, AUC, median ([3]; 400 mg QD 5 days, N = 12): 3.80 Grade*Day
- Composite Clinical Symptom, Duration, median [3, 5]: 2.69 days
- Composite Clinical Symptom, Peak, mean [3, 5]: 3.71 Grade
- Influenza like Symptom, Duration, median [3, 5]: 2.69 days
- Influenza like Symptom, Peak, mean [3, 5]: 3.21 Grade
- Composite Clinical Symptom, AUC, median [3, 5]: 1.75 Grade*Day
- Influenza like Symptom, AUC, median [3, 5]: 1.75 Grade*Day
- Composite Clinical Symptom, Duration, median [3, 6]: 1.88 days
- Composite Clinical Symptom, Peak, mean [3, 6]: 1.50 Grade
- Influenza like Symptom, Duration, median [3, 6]: 1.88 days
- Influenza like Symptom, Peak, mean [3, 6]: 1.36 Grade
- Composite Clinical Symptom, AUC, median [3, 6]: 1.95 Grade*Day
- Influenza like Symptom, AUC, median [3, 6]: 1.75 Grade*Day
- Composite Clinical Symptom, Duration, median [3, 7]: 2.34 days
- Composite Clinical Symptom, Peak, mean [3, 7]: 2.79 Grade
- Influenza like Symptom, Duration, median [3, 7]: 2.34 days
- Influenza like Symptom, Peak, mean [3, 7]: 2.42 Grade
- Composite Clinical Symptom, AUC, median [3, 7]: 2.15 Grade*Day
- Influenza like Symptom, AUC, median [3, 7]: 2.05 Grade*Day
- EC50 [4]: 0.31 ± 0.25 nM
- EC50 (A/Swine/1976/31 (H1N1)): 0.47 ± 0.11 nM
- EC50 (A/Florida/3/2006 (H1N1)): 0.92 ± 1.5 nM
- EC50 (A/Missouri/3/2006 (H1N1)): 0.21 ± 0.06 nM
- tolerability (100 mg to 1200/600 mg QD, five daily doses): well tolerated
- Adverse event: Alanine aminotransferase increased (100 mg, N = 16): 3 (18.8) n(%)
- Adverse event: Aspartate aminotransferase increased (100 mg, N = 16): 1 (6.3) n(%)
- Adverse event: Blood phosphorus decreased (100 mg, N = 16): 3 (18.8) n(%)
- Adverse event: Dermatitis contact (100 mg, N = 16): 3 (18.8) n(%)
- Adverse event: Headache (100 mg, N = 16): 1 (6.3) n(%)
- Adverse event: Influenza-like illness (100 mg, N = 16): 8 (50.0) n(%)
- Adverse event: Malaise (100 mg, N = 16): 2 (12.5) n(%)
- Adverse event: Nasal congestion (100 mg, N = 16): 0 n(%)
- Adverse event: Nausea (100 mg, N = 16): 0 n(%)
- Adverse event: Oropharylngeal pain (100 mg, N = 16): 2 (12.5) n(%)
- Adverse event: Rhinorrhea (100 mg, N = 16): 0 n(%)
- Adverse event: Spirometry abnormal (100 mg, N = 16): 2 (12.5) n(%)
- Adverse event: Tension Headache (100 mg, N = 16): 0 n(%)
- Adverse event: Alanine aminotransferase increased (400 mg, N = 19): 1 (5.3) n(%)
- Adverse event: Aspartate aminotransferase increased (400 mg, N = 19): 1 (5.3) n(%)
- Adverse event: Blood phosphorus decreased (400 mg, N = 19): 0 n(%)
- Adverse event: Dermatitis contact (400 mg, N = 19): 0 n(%)
- Adverse event: Headache (400 mg, N = 19): 4 (21.1) n(%)
- Adverse event: Influenza-like illness (400 mg, N = 19): 10 (52.6) n(%)
- Adverse event: Malaise (400 mg, N = 19): 0 n(%)
- Adverse event: Nasal congestion (400 mg, N = 19): 0 n(%)
